Test: Asthma Quality of Life Questionnaire with Standardized Activities (AQLQ(S))
Format: in vivo, human
Settings: mITT
Description: The AQLQ(S) is a self-administered patient reported outcome to measure the functional impairments that are most troublesome to adolescents and adults ≥12 years of age as a result of their asthma.
Asthma Quality of Life Questionnaire with Standardized Activities (AQLQ(S)) self-administered (≥12 years)
The AQLQ(S) was designed as a self-administered patient reported outcome to measure the functional impairments that are most troublesome to adolescents and adults ≥12 years of age as a result of their asthma. The instrument is comprised of 32 items, each rated on a 7-point Likert scales from 1 to 7. The AQLQ(S) has 4 domains. The domains and the number of items in each domain are as follows: • Symptoms (12 items) • Activity limitation (11 items) • Emotional function (5 items) • Environmental stimuli (4 items)
A global score is calculated ranging from 1 to 7 and a score by domain. Higher scores indicate better quality of life. […] Patients were to complete the questionnaire in an electronic diary during on-site visits.
Secondary endpoints included pre-bronchodilator FEV1 change from baseline at EOT, ACQ-5 score change from baseline, and AQLQ score change from baseline. Other secondary and exploratory endpoints are described in Table 2.

SMILES: CC(C)(C=C(C#N)C(=O)N1CCC[C@@H](n2nc(-c3ccc(Oc4ccccc4)cc3F)c3c(N)ncnc32)C1)N1CCN(C2COC2)CC1 (mixture of isomers) [rilzabrutinib, (R)-2-[3-[4-amino-3-(2-fluoro-4-phenoxy-phenyl)pyrazolo[3,4-d]pyrimidin-1-yl]piperidine-1-carbonyl]-4-methyl-4-[4-(oxetan-3-yl)piperazin-1-yl]pent-2-enenitrile]
- AQLQ(S) Activity limitation score, Mean (Week 4, 400 mg TID): 5.15
- AQLQ(S) Activity limitation score, Median (Week 4, 400 mg TID): 5.18
- AQLQ(S) Activity limitation score, change from baseline, LS Mean (Week 4, 400 mg TID): 0.34
- AQLQ(S) Activity limitation score, change from baseline, Mean (Week 4, 400 mg TID): 0.16
- AQLQ(S) Activity limitation score, change from baseline, Median (Week 4, 400 mg TID): 0.09
- AQLQ(S) Emotional function score, Mean (Week 4, 400 mg TID): 5.37
- AQLQ(S) Emotional function score, Median (Week 4, 400 mg TID): 5.40
- AQLQ(S) Emotional function score, change from baseline, LS Mean (Week 4, 400 mg TID): 0.35
- AQLQ(S) Emotional function score, change from baseline, Mean (Week 4, 400 mg TID): 0.22
- AQLQ(S) Emotional function score, change from baseline, Median (Week 4, 400 mg TID): 0.20
- AQLQ(S) Environmental stimuli score, Mean (Week 4, 400 mg TID): 4.78
- AQLQ(S) Environmental stimuli score, change from baseline, LS Mean (Week 4, 400 mg TID): 0.30
- AQLQ(S) Environmental stimuli score, change from baseline, Mean (Week 4, 400 mg TID): 0.12
- AQLQ(S) Environmental stimuli score, change from baseline, Median (Week 4, 400 mg TID): 0.25
- AQLQ(S) Global score, Mean (Week 4, 400 mg TID): 5.16
- AQLQ(S) Global score, Median (Week 4, 400 mg TID): 5.03
- AQLQ(S) Global score, change from baseline, LS Mean (Week 4, 400 mg TID): 0.33
- AQLQ(S) Global score, change from baseline, Mean (Week 4, 400 mg TID): 0.19
- AQLQ(S) Global score, change from baseline, Median (Week 4, 400 mg TID): 0.13
- AQLQ(S) Symptoms score, Mean (Week 4, 400 mg TID): 5.19
- AQLQ(S) Symptoms score, Median (Week 4, 400 mg TID): 5.08
- AQLQ(S) Symptoms score, change from baseline, LS Mean (Week 4, 400 mg TID): 0.38
- AQLQ(S) Symptoms score, change from baseline, Mean (Week 4, 400 mg TID): 0.22
- AQLQ(S) Symptoms score, change from baseline, Median (Week 4, 400 mg TID): 0.25
- AQLQ(S) Emotional function score, change from baseline, LS Mean Diff vs. placebo (Week 4, 400 mg TID, 95% CI −0.12, 0.54): 0.21
- AQLQ(S) Symptoms score, change from baseline, LS Mean Diff vs. placebo (Week 4, 400 mg TID, 95% CI −0.14, 0.44): 0.15
- AQLQ(S) Global score, change from baseline, LS Mean Diff vs. placebo (Week 4, 400 mg TID, 95% CI −0.18, 0.36): 0.09
- AQLQ(S) Activity limitation score, change from baseline, LS Mean Diff vs. placebo (Week 4, 400 mg TID, 95% CI −0.20, 0.35): 0.08
- AQLQ(S) Environmental stimuli score, change from baseline, LS Mean Diff vs. placebo (Week 4, 400 mg TID, 95% CI −0.37, 0.30): −0.03
- AQLQ(S) Activity limitation score, Mean (Week 8, 400 mg BID): 5.72
- AQLQ(S) Activity limitation score, Median (Week 8, 400 mg BID): 5.91
- AQLQ(S) Activity limitation score, change from baseline, LS Mean (Week 8, 400 mg BID): 0.89
- AQLQ(S) Activity limitation score, change from baseline, Mean (Week 8, 400 mg BID): 0.96
- AQLQ(S) Activity limitation score, change from baseline, Median (Week 8, 400 mg BID): 0.82
- AQLQ(S) Emotional function score, Mean (Week 8, 400 mg BID): 6.12
- AQLQ(S) Emotional function score, Median (Week 8, 400 mg BID): 6.20
- AQLQ(S) Emotional function score, change from baseline, LS Mean (Week 8, 400 mg BID): 1.06
- AQLQ(S) Emotional function score, change from baseline, Mean (Week 8, 400 mg BID): 0.87
- AQLQ(S) Emotional function score, change from baseline, Median (Week 8, 400 mg BID): 0.60
- AQLQ(S) Environmental stimuli score, Mean (Week 8, 400 mg BID): 5.19
- AQLQ(S) Environmental stimuli score, change from baseline, LS Mean (Week 8, 400 mg BID): 0.66
- AQLQ(S) Environmental stimuli score, change from baseline, Mean (Week 8, 400 mg BID): 0.73
- AQLQ(S) Environmental stimuli score, change from baseline, Median (Week 8, 400 mg BID): 0.50
- AQLQ(S) Global score, Mean (Week 8, 400 mg BID): 5.79
- AQLQ(S) Global score, Median (Week 8, 400 mg BID): 5.88
- AQLQ(S) Global score, change from baseline, LS Mean (Week 8, 400 mg BID): 0.92
- AQLQ(S) Global score, change from baseline, Mean (Week 8, 400 mg BID): 0.90
- AQLQ(S) Global score, change from baseline, Median (Week 8, 400 mg BID): 0.63
- AQLQ(S) Symptoms score, Mean (Week 8, 400 mg BID): 5.93
- AQLQ(S) Symptoms score, Median (Week 8, 400 mg BID): 6.00
- AQLQ(S) Symptoms score, change from baseline, LS Mean (Week 8, 400 mg BID): 0.99
- AQLQ(S) Symptoms score, change from baseline, Mean (Week 8, 400 mg BID): 0.91
- AQLQ(S) Symptoms score, change from baseline, Median (Week 8, 400 mg BID): 0.83
- AQLQ(S) Environmental stimuli score, change from baseline, LS Mean Diff vs. placebo (Week 8, 400 mg BID, 95% CI 0.03, 1.33): 0.68
- AQLQ(S) Symptoms score, change from baseline, LS Mean Diff vs. placebo (Week 8, 400 mg BID, 95% CI 0.35, 1.18): 0.76
- AQLQ(S) Global score, change from baseline, LS Mean Diff vs. placebo (Week 8, 400 mg BID, 95% CI 0.39, 1.20): 0.79
- AQLQ(S) Activity limitation score, change from baseline, LS Mean Diff vs. placebo (Week 8, 400 mg BID, 95% CI 0.39, 1.21): 0.80
- AQLQ(S) Emotional function score, change from baseline, LS Mean Diff vs. placebo (Week 8, 400 mg BID, 95% CI 0.42, 1.54): 0.98
- AQLQ(S) Activity limitation score, Mean (Week 8, 400 mg TID): 5.28
- AQLQ(S) Activity limitation score, Median (Week 8, 400 mg TID): 5.27
- AQLQ(S) Activity limitation score, change from baseline, LS Mean (Week 8, 400 mg TID): 0.42
- AQLQ(S) Activity limitation score, change from baseline, Mean (Week 8, 400 mg TID): 0.29
- AQLQ(S) Activity limitation score, change from baseline, Median (Week 8, 400 mg TID): 0.36
- AQLQ(S) Emotional function score, Mean (Week 8, 400 mg TID): 5.52
- AQLQ(S) Emotional function score, Median (Week 8, 400 mg TID): 5.40
- AQLQ(S) Emotional function score, change from baseline, LS Mean (Week 8, 400 mg TID): 0.51
- AQLQ(S) Emotional function score, change from baseline, Mean (Week 8, 400 mg TID): 0.37
- AQLQ(S) Emotional function score, change from baseline, Median (Week 8, 400 mg TID): 0.40
- AQLQ(S) Environmental stimuli score, Mean (Week 8, 400 mg TID): 4.90
- AQLQ(S) Environmental stimuli score, change from baseline, LS Mean (Week 8, 400 mg TID): 0.36
- AQLQ(S) Environmental stimuli score, change from baseline, Mean (Week 8, 400 mg TID): 0.24
- AQLQ(S) Environmental stimuli score, change from baseline, Median (Week 8, 400 mg TID): 0.25

From US20260345619A1 (Principia Biopharma Inc., priority 2023, published 2026)
